In US20250171452A1 (Viscient Bio, Inc., priority 2022, published 2025):
Structures can show the parent of a compound that is named as a salt.

Molecular target: IDO2 (Homo sapiens (Human), UniProt Q6ZQW0)
Assay: Cellular IDO2 assay, doxycycline and 5-methoxy-L-tryptophan medium, colorimetric
Format: cell-based
Settings: cellular level, 72 h incubation, signal at 480 nm
Description: IDO2 inhibition at the cellular level was evaluated in vitro using the following procedure.
Using cell culture medium, the volume of the suspension was adjusted to achieve a cell concentration of 20,000 cells/well (90 uL/well).
5-Methoxy-L-tryptophan powder was dissolved in the culture medium to a concentration of 10 mM, then filtered and sterilized with a 0.22 um filter. Doxycycline powder was dissolved in ddH2O to a concentration of 100 ug/ml, then filtered and sterilized with a 0.22 um filter. 5-aminolevulinic acid powder was dissolved in ddH2O to a concentration of 400 mM, then filtered and sterilized with a 0.22 um filter. A 2× Assay medium was then by diluting the doxycycline (from 100 ug/ml to 2 ug/ml) and 5-Methoxy-L-tryptophan (from 10 mM to 5 mM) in culture medium. The 5-aminolevulinic acid solution was also added to the solution (diluting the concentration from 400 mM to 2 mM) to get a 2× working solution.
After incubation, plates and reagents were allows to equilibrate to room temperature. […] Trichloroacetic acid powder was dissolved in ddH2O to prepare 6.1N trichloroacetic acid. […] The plates were incubated at 55° C. for 40 minutes, and then centrifuged for 10 min at 2500 rpm. […] Measurement of the signal was performed using Envision at 480 nm. Throughout the foregoing process, care was taken to prevent exposure to light.

Chain of IDO2 (Q6ZQW0 whole entry, species assumed): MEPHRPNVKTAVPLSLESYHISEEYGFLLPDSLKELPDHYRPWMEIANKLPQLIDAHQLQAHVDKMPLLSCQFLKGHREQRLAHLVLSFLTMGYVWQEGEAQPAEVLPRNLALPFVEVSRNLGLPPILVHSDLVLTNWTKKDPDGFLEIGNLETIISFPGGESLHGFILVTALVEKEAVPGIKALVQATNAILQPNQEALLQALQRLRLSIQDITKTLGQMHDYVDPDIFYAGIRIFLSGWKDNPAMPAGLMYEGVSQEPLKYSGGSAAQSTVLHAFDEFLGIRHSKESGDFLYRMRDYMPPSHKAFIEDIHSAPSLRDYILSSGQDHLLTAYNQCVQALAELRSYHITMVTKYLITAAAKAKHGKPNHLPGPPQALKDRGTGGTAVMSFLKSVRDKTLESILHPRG

First: 3-bromo-8-nitroindolo[2,1-b]quinazoline-6,12-dione [Compound 65]
Second: CON=C1c2cc(F)ccc2-n2c1nc1cc(CNS(C)(=O)=O)ccc1c2=O (stereo in doubt) [Compound 91, (Z)—N-((8-fluoro-6-(methoxyimino)-12-oxo-6,12-dihydroindolo[2,1-b]quinazolin-3-yl)methyl)methanesulfonamide]
The IC50 of the first is higher: 50 to 500 nM for the first, < 50 nM for the second. The second is the more potent here.

`CON=C1c2cc(F)ccc2-n2c1nc1cc(CNC(=O)OCc3ccccc3)ccc1c2=O` (stereo in doubt) [Compound 93, benzyl (Z)-((8-fluoro-6-(methoxyimino)-12-oxo-6,12-dihydroindolo[2,1-b]quinazolin-3-yl)methyl)carbamate] and `CON=C1c2cc(F)ccc2-n2c1nc1cc(CNC(C)=O)ccc1c2=O` (stereo in doubt) [Compound 94, (Z)—N-((8-fluoro-6-(methoxyimino)-12-oxo-6,12-dihydroindolo[2,1-b]quinazolin-3-yl)methyl)acetamide] fall in the same range of IC50: 50 to 500 nM for the first, 50 to 500 nM for the second.

Compared with `CON=C1c2cc(C#N)ccc2-n2c1nc1c(Nc3ccc(F)cc3)cccc1c2=O` (stereo in doubt) [Compound 118, (Z)-4-((4-Fluorophenyl)amino)-6-(methoxyimino)-12-oxo-6,12-dihydroindolo[2,1-b]quinazoline-8-carbonitrile], `CON=C1c2cc(F)ccc2-n2c1nc1c(Nc3ccc(F)cc3)cccc1c2=O` (stereo in doubt) [Compound 122, (Z)-8-Fluoro-4-((4-fluorophenyl)amino)-6-(methoxyimino)indolo[2,1-b]quinazolin-12(6H)-one] is higher in IC50: < 50 nM for the first, > 500 nM for the second. The first is the more potent here.

First: O=c1c2cccc(Nc3ccc(F)cc3)c2nc2n1-c1ccc(F)cc1C2=NO (stereo in doubt) [Compound 123, (Z)-8-Fluoro-4-((4-fluorophenyl)amino)-6-(hydroxyimino)indolo[2,1-b]quinazolin-12(6H)-one]
Second: Cc1ccc2nc3n(c(=O)c2c1)-c1ccc([N+](=O)[O-])cc1C3=O [Compound 52, 2-Methyl-8-nitroindolo[2,1-b]quinazoline-6,12-dione]
The IC50 of the first is higher: 50 to 500 nM for the first, < 50 nM for the second. The second is the more potent here.

`O=C1c2cc(C(F)(F)F)ccc2-n2c1nc1ccccc1c2=O` [Compound 53, 8-(Trifluoromethyl)indolo[2,1-b]quinazoline-6,12-dione] and `O=C1c2cc([N+](=O)[O-])ccc2-n2c1nc1ccc(F)cc1c2=O` [Compound 54, 2-Fluoro-8-nitroindolo[2,1-b]quinazoline-6,12-dione] cannot be ordered by IC50: < 50 nM for the first, < 50 nM for the second.

Compared with `O=C1c2cc([N+](=O)[O-])ccc2-n2c1nc1cccc(Br)c1c2=O` [Compound 55, 1-Bromo-8-nitroindolo[2,1-b]quinazoline-6,12-dione], `O=C1c2cc([N+](=O)[O-])ccc2-n2c1nc1cc(Cl)cc(Cl)c1c2=O` [Compound 56, 1,3-Dichloro-8-nitroindolo[2,1-b]quinazoline-6,12-dione] is lower in IC50: > 500 nM for the first, 50 to 500 nM for the second.

First: O=C1c2cc([N+](=O)[O-])ccc2-n2c1nc1cnccc1c2=O [Compound 57, 9-Nitropyrido[3′,4′:4,5]pyrimido[1,2-a]indole-5,11-dione]
Second: COc1cc2c(=O)n3c(nc2cn1)C(=O)c1cc([N+](=O)[O-])ccc1-3 [Compound 58, 3-Methoxy-9-nitropyrido[3′,4′:4,5]pyrimido[1,2-a]indole-5,11-dione]
The IC50 of the first is lower: < 50 nM for the first, 50 to 500 nM for the second.

Compared with `O=C1c2c(ccc(F)c2F)-n2c1nc1ccccc1c2=O` [Compound 60, 7,8-Difluoroindolo[2,1-b]quinazoline-6,12-dione], `NCCNC(=O)c1ccc2c(c1)/C(=N\O)c1nc3cc(Cl)ccc3c(=O)n1-2` [Compound 61] is higher in IC50: < 50 nM for the first, > 500 nM for the second. The first is the more potent here.

First: O=c1c2ccccc2nc2n1-c1ccc([N+](=O)[O-])cc1C2 [Compound 62, 8-Nitroindolo[2,1-b]quinazolin-12(6H)-one]
Second: [N-]=[N+]=Nc1ccc2c(c1)C(=O)c1nc3cc(Cl)ccc3c(=O)n1-2 [Compound 66]
The IC50 of the first is higher: 50 to 500 nM for the first, < 50 nM for the second.

`CS(=O)(=O)c1ccc2c(c1)/C(=N\O)c1nc3cc(F)ccc3c(=O)n1-2` [Compound 67] and `NCCNC(=O)c1ccc2c(c1)/C(=N\O)c1nc3cc(Cl)ccc3c(=O)n1-2` [Compound 68] fall in the same range of IC50: 50 to 500 nM for the first, 50 to 500 nM for the second.

`[2H]C([2H])(Nc1ccc2c(=O)n3c(nc2c1)C(=O)c1cc(F)ccc1-3)c1ccc(F)cc1` [Compound 69] and `[2H]C([2H])(Nc1ccc2c(=O)n3c(nc2c1)C(=O)c1cc(C#N)ccc1-3)c1ccc(F)cc1` [Compound 70] cannot be ordered by IC50: < 50 nM for the first, < 50 nM for the second.

`N#Cc1ccc2c(c1)C(=O)c1nc3c(Oc4ccc(F)cc4)cccc3c(=O)n1-2` [Compound 71] and `N#Cc1ccc2c(c1)Cc1nc3cc(F)ccc3c(=O)n1-2` [Compound 72] cannot be ordered by IC50: < 50 nM for the first, < 50 nM for the second.

Compared with `CC1(CCC(=O)Nc2ccc3c(c2)C(=O)c2nc4cc(Cl)ccc4c(=O)n2-3)N=N1` [Compound 73], `CO/N=C1\c2cc(F)ccc2-n2c1nc1cc(CN3CCN(C)CC3)ccc1c2=O` [Compound 74] is higher in IC50: 50 to 500 nM for the first, > 500 nM for the second.

First: NS(=O)(=O)c1ccc2c(c1)C(=O)c1nc3cc(Cl)ccc3c(=O)n1-2 [Compound 75]
Second: O=c1c2ccc(Cl)cc2nc2n1-c1ccc(Br)cc1C2 [Compound 76]
The IC50 of the first is higher: 50 to 500 nM for the first, < 50 nM for the second. The second is the more potent here.

`CC(C)(C)OC(=O)NCCNC(=O)c1ccc2c(c1)C(=O)c1nc3cc(Cl)ccc3c(=O)n1-2` [Compound 77] and `O=C1c2cc(SCc3ccccc3)ccc2-n2c1nc1cc(Cl)ccc1c2=O` [Compound 78] fall in the same range of IC50: 50 to 500 nM for the first, 50 to 500 nM for the second.

Compared with `CN(C)S(=O)(=O)c1ccc2c(c1)C(=O)c1nc3cc(F)ccc3c(=O)n1-2` [Compound 79], `NC(=O)c1ccc2c(c1)Cc1nc3cc(F)ccc3c(=O)n1-2` [Compound 80] is higher in IC50: < 50 nM for the first, 50 to 500 nM for the second.

`O=C1c2cc(F)ccc2-n2c1nc1cc(NCc3ccc(F)cc3)ccc1c2=O` [Compound 81] and `CNS(=O)(=O)c1ccc2c(c1)C(=O)c1nc3cc(F)ccc3c(=O)n1-2` [Compound 82] cannot be ordered by IC50: < 50 nM for the first, < 50 nM for the second.

`O=C1c2cc(F)ccc2-n2c1nc1cc(Nc3ccc(F)cc3)ccc1c2=O` [Compound 83] and `N#Cc1ccc2c(c1)/C(=N\O)c1nc3cc(Cl)ccc3c(=O)n1-2` [Compound 84] cannot be ordered by IC50: < 50 nM for the first, < 50 nM for the second.

`CS(=O)(=O)c1ccc2c(c1)Cc1nc3cc(F)ccc3c(=O)n1-2` [Compound 85] and `CS(=O)(=O)Nc1ccc2c(c1)C(=O)c1nc3cc(Cl)cc(Cl)c3c(=O)n1-2` [Compound 86] fall in the same range of IC50: 50 to 500 nM for the first, 50 to 500 nM for the second.

`CS(=O)(=O)c1ccc2c(c1)C(=O)c1nc3cc(Cl)cc(Cl)c3c(=O)n1-2` [Compound 87] and `NS(=O)(=O)NCc1ccc2c(=O)n3c(nc2c1)C(=O)c1cc(F)ccc1-3` [Compound 88] cannot be ordered by IC50: < 50 nM for the first, < 50 nM for the second.

`O=C1c2cc(F)ccc2-n2c1nc1cc(-c3c[nH]cn3)ccc1c2=O` [Compound 89, 8-fluoro-3-(1H-imidazol-4-yl)indolo[2,1-b]quinazoline-6,12-dione] and `NCc1ccc2c(=O)n3c(nc2c1)C(=O)c1cc(F)ccc1-3` [Compound 90, 3-(aminomethyl)-8-fluoroindolo[2,1-b]quinazoline-6,12-dione Hydrochloride Salt] fall in the same range of IC50: 50 to 500 nM for the first, 50 to 500 nM for the second.

`CC(C)(C)OC(=O)NCc1ccc2c(=O)n3c(nc2c1)C(=O)c1cc(F)ccc1-3` [Compound 92] and `CS(=O)(=O)NCc1ccc2c(=O)n3c(nc2c1)C(=O)c1cc(F)ccc1-3` [Compound 95, N-((8-fluoro-6,12-dioxo-6,12-dihydroindolo[2,1-b]quinazolin-3-yl)methyl)methanesulfonamide] cannot be ordered by IC50: < 50 nM for the first, < 50 nM for the second.

`O=C(NCc1ccc2c(=O)n3c(nc2c1)C(=O)c1cc(F)ccc1-3)OCc1ccccc1` [Compound 96, benzyl ((8-fluoro-6,12-dioxo-6,12-dihydroindolo[2,1-b]quinazolin-3-yl)methyl)carbamate] and `CO/N=C1/c2cc(F)ccc2-n2c1nc1cc(-n3ccnc3)ccc1c2=O` [Compound 97, (Z)-8-fluoro-3-(1H-imidazol-1-yl)-6-(methoxyimino)indolo[2,1-b]quinazolin-12(6H)-one] cannot be ordered by IC50: < 50 nM for the first, < 50 nM for the second.

`O=C1c2cc(F)ccc2-n2c1nc1cc(-n3ccnc3)ccc1c2=O` [Compound 98, 8-fluoro-3-(1H-imidazol-1-yl)indolo[2,1-b]quinazoline-6,12-dione] and `CO/N=C1\c2cc(F)ccc2-n2c1nc1cc(CNS(N)(=O)=O)ccc1c2=O` [Compound 99] cannot be ordered by IC50: < 50 nM for the first, < 50 nM for the second.

Compared with `CC(=O)NCc1ccc2c(=O)n3c(nc2c1)C(=O)c1cc(F)ccc1-3` [Compound 100, N-((8-fluoro-6,12-dioxo-6,12-dihydroindolo[2,1-b]quinazolin-3-yl)methyl)acetamide], `NCc1cccc2nc3n(c(=O)c12)-c1ccc(F)cc1C3=O` [Compound 101, 1-(aminomethyl)-8-fluoroindolo[2,1-b]quinazoline-6,12-dione] is higher in IC50: < 50 nM for the first, 50 to 500 nM for the second. The first is the more potent here.

`NCc1cccc2nc3n(c(=O)c12)-c1ccc(F)cc1C3=O` [Compound 102] and `O=C1c2cc(F)ccc2-n2c1nc1cccc(Br)c1c2=O` [Compound 103, 1-bromo-8-fluoroindolo[2,1-b]quinazoline-6,12-dione] cannot be ordered by IC50: < 50 nM for the first, < 50 nM for the second.

`CN(C)Cc1ccc2nc3n(c(=O)c2c1Cl)-c1ccc(C#N)cc1C3=O` [Compound 104] and `Cc1ccc2nc3n(c(=O)c2c1Cl)-c1ccc(Br)cc1C3=O` [Compound 105] cannot be ordered by IC50: < 50 nM for the first, < 50 nM for the second.

Compared with `CS(=O)(=O)c1ccc2c(c1)C(=O)c1nc3cc(F)cc(F)c3c(=O)n1-2` [Compound 106], `CN(C)Cc1ccc2nc3n(c(=O)c2c1Cl)-c1ccc(Br)cc1C3=O` [Compound 107] is lower in IC50: 50 to 500 nM for the first, < 50 nM for the second. The second is the more potent here.

`O=C1c2cc([N+](=O)[O-])ccc2-n2c1nc1ccc(F)c(F)c1c2=O` [Compound 108] and `NS(=O)(=O)c1ccc2c(c1)C(=O)c1nc3cc(F)cc(F)c3c(=O)n1-2` [Compound 109] fall in the same range of IC50: 50 to 500 nM for the first, 50 to 500 nM for the second.

Compared with `O=C1c2cc([N+](=O)[O-])ccc2-n2c1nc1ccc(F)c(Cl)c1c2=O` [Compound 110], `N#Cc1ccc2c(c1)C(=O)c1nc3c(Br)ccc(F)c3c(=O)n1-2` [Compound 111] is higher in IC50: < 50 nM for the first, 50 to 500 nM for the second. The first is the more potent here.

`O=C1c2cc(SCc3ccccc3)ccc2-n2c1nc1cc(F)cc(F)c1c2=O` [Compound 112] and `N#Cc1ccc2c(c1)C(=O)c1nc3cc(Cl)cc(Cl)c3c(=O)n1-2` [Compound 113] cannot be ordered by IC50: < 50 nM for the first, < 50 nM for the second.
